Laboratory results published in PubChem BioAssay (NCI).
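Each compound was tested at five concentrations against cells in 96-well plates for 48 hours. At the TGI there is no net growth.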

Experiments:
Experiment in all cases: inhibition of tumour cell growth, NCI panel, 48 h
[1] = test system: HCT-116 colon
[2] = test system: SK-MEL-28 melanoma
[3] = test system: SK-MEL-2 melanoma
[4] = test system: CCRF-CEM leukemia
[5] = test system: SR leukemia
[6] = test system: COLO 205 colon
[7] = test system: UACC-257 melanoma
[8] = test system: HCC-2998 colon
[9] = test system: HT29 colon
[10] = test system: OVCAR-4 ovarian
[11] = test system: SW-620 colon
[12] = test system: KM12 colon
[13] = test system: BT-549 breast
[14] = test system: PC-3 prostate
[15] = test system: SN12C renal
[16] = test system: ACHN renal
[17] = test system: 786-0 renal
[18] = test system: HOP-92 NSCLC
[19] = test system: SF-268 CNS
[20] = test system: SK-OV-3 ovarian
[21] = test system: NCI-H226 lung
[22] = test system: OVCAR-3 ovarian
[23] = test system: RPMI-8226 leukemia
[24] = test system: MDA-N
[25] = test system: DU-145 prostate
[26] = test system: M14 melanoma
[27] = test system: K-562 leukemia
[28] = test system: SF-539 CNS
[29] = test system: MOLT-4 leukemia
[30] = test system: U251 CNS
[31] = test system: EKVX NSCLC
[32] = test system: TK-10 renal
[33] = test system: IGROV1 ovarian
[34] = test system: A498 renal
[35] = test system: A549 NSCLC
[36] = test system: NCI-H522 lung
[37] = test system: HS 578T breast
[38] = test system: OVCAR-8 ovarian
[39] = test system: OVCAR-5 ovarian
[40] = test system: MCF7 breast
[41] = test system: MDA-MB-435
[42] = test system: UO-31 renal
[43] = test system: NCI-H23 lung
[44] = test system: NCI/ADR-RES ovarian
[45] = test system: MALME-3M melanoma
[46] = test system: MDA-MB-231 breast
[47] = test system: NCI-H460 lung
[48] = test system: LOX IMVI melanoma
[49] = test system: SF-295 CNS
[50] = test system: SK-MEL-5 melanoma
[51] = test system: HOP-62 NSCLC
[52] = test system: UACC-62 melanoma
[53] = test system: SNB-19 CNS
[54] = test system: HCT-15 colon
[55] = test system: CAKI-1 renal
[56] = test system: T-47D breast
[57] = test system: RXF 393 renal
[58] = test system: HL-60(TB) leukemia
[59] = test system: SNB-75 CNS

C/C(N=Nc1nc2ccccc2s1)=C1/C=CC=CN1O
TGI [1]: > 100 µM | TGI [2]: > 100 µM | TGI [3]: > 100 µM | TGI [4]: > 100 µM | TGI [5]: > 100 µM | TGI [6]: > 100 µM | TGI [7]: > 100 µM | TGI [8]: 0.0978 µM | TGI [9]: > 100 µM | TGI [10]: > 100 µM | TGI [11]: > 100 µM | TGI [12]: > 100 µM | TGI [13]: > 100 µM | TGI [14]: > 100 µM | TGI [15]: > 100 µM | TGI [16]: > 100 µM | TGI [17]: > 100 µM | TGI [18]: 60.9 µM | TGI [19]: > 100 µM | TGI [20]: > 100 µM | TGI [21]: > 100 µM | TGI [22]: 71.2 µM | TGI [23]: > 100 µM | TGI [24]: > 100 µM | TGI [25]: > 100 µM | TGI [26]: > 100 µM | TGI [27]: > 100 µM | TGI [28]: > 100 µM | TGI [29]: > 100 µM | TGI [30]: > 100 µM | TGI [31]: 6.03 µM | TGI [32]: 61.3 µM | TGI [33]: > 100 µM | TGI [34]: > 100 µM | TGI [35]: > 100 µM | TGI [36]: 91.6 µM | TGI [37]: > 100 µM | TGI [38]: > 100 µM | TGI [39]: 5.95 µM | TGI [40]: 60.5 µM | TGI [41]: > 100 µM | TGI [42]: > 100 µM | TGI [43]: > 100 µM | TGI [44]: 98.1 µM | TGI [45]: 57.4 µM | TGI [46]: > 100 µM | TGI [47]: > 100 µM | TGI [48]: > 100 µM | TGI [49]: 3.72 µM | TGI [50]: > 100 µM | TGI [51]: > 100 µM | TGI [52]: > 100 µM | TGI [53]: > 100 µM | TGI [54]: > 100 µM | TGI [55]: > 100 µM | TGI [56]: > 100 µM | TGI [57]: > 100 µM

CCNC(=O)Nc1ccccn1
TGI [58]: > 100 µM | TGI [1]: > 100 µM | TGI [2]: > 100 µM | TGI [4]: > 100 µM | TGI [5]: > 100 µM | TGI [6]: > 100 µM | TGI [7]: > 100 µM | TGI [8]: > 100 µM | TGI [9]: > 100 µM | TGI [10]: > 100 µM | TGI [11]: > 100 µM | TGI [12]: > 100 µM | TGI [13]: > 100 µM | TGI [14]: > 100 µM | TGI [15]: > 100 µM | TGI [16]: > 100 µM | TGI [17]: > 100 µM | TGI [18]: > 100 µM | TGI [19]: > 100 µM | TGI [20]: > 100 µM | TGI [21]: > 100 µM | TGI [22]: > 100 µM | TGI [24]: > 100 µM | TGI [25]: > 100 µM | TGI [26]: > 100 µM | TGI [27]: > 100 µM | TGI [28]: > 100 µM | TGI [29]: > 100 µM | TGI [30]: > 100 µM | TGI [31]: > 100 µM | TGI [32]: > 100 µM | TGI [33]: > 100 µM | TGI [34]: > 100 µM | TGI [35]: > 100 µM | TGI [36]: > 100 µM | TGI [37]: > 100 µM | TGI [38]: > 100 µM | TGI [39]: > 100 µM | TGI [40]: > 100 µM | TGI [41]: > 100 µM | TGI [42]: > 100 µM | TGI [43]: > 100 µM | TGI [45]: > 100 µM | TGI [46]: > 100 µM | TGI [47]: > 100 µM | TGI [59]: > 100 µM | TGI [49]: > 100 µM | TGI [50]: > 100 µM | TGI [51]: > 100 µM | TGI [52]: > 100 µM | TGI [53]: > 100 µM | TGI [55]: > 100 µM | TGI [56]: > 100 µM | TGI [57]: > 100 µM
